US20220194997A1, “SUMO PEPTIDES FOR TREATING NEURODEGENERATIVE DISEASES” (The Chinese University of Hong Kong, priority 2019, published 2022)
Where no end group is shown, it is not given here.

What was measured:
α-synuclein [1] = biological target: T1, α-synuclein (Homo sapiens, UniProt P37840); assay: Microscale thermophoresis (MST) binding
T1 construct: made in house; host or cells: Escherichia coli BL21(DE3), pET-28a (NcoI/XhoI)
Protocol: The labelling reaction was performed according to the manufacturer's instructions. Unreacted dye was removed with the dye removal column supplied in the Protein Labelling Kit RED-NHS (NanoTemper Technologies) or desalting column (Bio-Rad). […] The labelled targets were adjusted to appropriate concentration for detection. The ligands were dissolved in reaction buffer and a series of 16 1:1 dilutions was prepared. For the measurement, each ligand dilution was mixed with one volume of labelled protein target. After 10 min incubation, the samples were loaded into standard or premium Monolith NT.115 Capillaries (NanoTemper Technologies). MST was measured using a Monolith NT.115 instrument (NanoTemper Technologies) at an ambient temperature of 25° C. Instrument parameters were adjusted to 20% LED power and medium MST power. Data of three independently pipetted measurements were analyzed (MO.Affinity Analysis software version 2.1.3, NanoTemper Technologies) using the signal from an MST-on time of 5 s.
Unreacted dye was removed with desalting column (2K MWCO, Bio-Rad). The purity was monitored by measuring the ratio of protein to dye after the clean-up procedure. […]

α-synuclein [2] = biological target: T1, α-synuclein; assay: Fibrillation (Thioflavin T) assay of SDS-induced α-synuclein aggregation; assay type: biochemical
Protocol: The reaction contained the mixture of 70 μM α-synuclein and different concentrations of SUMO1 variants, 40 μM Thioflavin T (ThT) (Sigma-Aldrich), 0.4 mM SDS in reaction buffer (20 mM HEPES, 150 mM NaCl, pH 7.4). Reactions were performed in quadruplicate in a black clear-bottomed 96-well plate (Nunc, Thermo Fisher Scientific) with a final volume of 150 μL. The plate was sealed with sealing membrane (Thermo Fisher Scientific) and loaded into an Infinite M1000 plate reader (Tecan), incubated at 37° C. without agitation. The fluorescence was detected at 30 min intervals, with excitation at 450 nm and with emission at 485 nm. Protein samples were analyzed after fibrillation assay using size-exclusion chromatography on a Superdex 200 GL 5/150 column (3 ml, GE Healthcare) in reaction buffer.
Sodium dodecyl sulfate (SDS) was added to mimic membrane environments and serve as nucleation scaffold to stimulate α-synuclein aggregation (Giehm et al., 2010).
Thioflavin T (ThT) assay was performed as previously described^5 with minor modifications. […] The potential pre-formed aggregates in α-synuclein were removed by centrifugation at 15,000 rpm for 15 min and filtering through a 0.2 μm filter before the experiments. Reactions were performed in a black clear-bottomed 96-well plate (Nunc, Thermo Fisher Scientific) sealed with clear adhesive sealing sheet (Thermo Fisher Scientific) to avoid evaporation and loaded into an Infinite® M1000 plate reader (Tecan), incubated at 37° C. for 7 days without agitation. The fluorescence was recorded at 485 nm with excitation wavelength of 450 nm at the interval of 30 min.

SH-SY5Y cells = assay: Cellular uptake of Alexa 488 labelled peptide, confocal microscopy; assay type: cell-based; conditions: 1 h and 24 h, time course
Protocol: SH-SY5Y cells were planted on 35 mm glass bottom confocal dishes and incubated overnight. After co-incubation with Alexa 488 labelled R8-SUMO1(31-55), cells were fixed with 4% paraformaldehyde for 15 min at room temperature at different time points and visualized by Leica TCS SP8 confocal microscope with 63X oil immersion objective.

[3] = test system: α-synuclein (wild-type) transgenic Drosophila; assay: Climbing assay after larval feeding; assay type: in vivo; conditions: larval feeding 60, 120 or 240 μM, pilot study
[4] = test system: α-synuclein-A30P transgenic Drosophila; assay: Climbing assay after larval feeding; assay type: in vivo; conditions: larval feeding 60, 120 or 240 μM, pilot study
Description: (§1) The following fly strains were adopted in this study: gmr-GAL4 (RRID: BDSC_1104), elav-GAL4 (RRID: BDSC_458), UAS-α-synuclein-A30P (RRID: BDSC_8147), and UAS-α-synuclein-A53T (RRID: BDSC_8148). All strains were obtained from the Bloomington Drosophila Stock Center. To obtain PD model flies, virgin flies carrying the driver gmr-GAL4 or elav-GAL4 on X chromosome were crossed to males from UAS-α-synuclein-A30P/UAS-α-synuclein-A53T stocks. The progeny of these crosses was maintained on standard cornmeal medium supplemented with dry yeast in 25° C. incubator.
(§2) Climbing assay was performed according to previously described^10. Briefly, a group of 10 flies from each condition were placed in individual plastic vial, and gently tapped to the bottom of the vail. The number of flies that could climb a height of 2 cm within 15 s was recorded. Each trial was repeated five times with 1 min recovery periods between each trials. Total 20 (10 males and 10 females) flies from each condition were tested for one genetic cross.

[5] = test system: α-synuclein-A53T transgenic Drosophila; assay: Climbing assay after larval feeding; assay type: in vivo; conditions: larval feeding 60, 120 or 240 μM, pilot study
Description: as §1, §2

[6] = equimolar ratio (1:1), 70 μM α-synuclein, 37° C., 7 days

Compound: CC[C@H](C)[C@H](NC(=O)[C@H](Cc1ccc(O)cc1)NC(=O)[C@H](CCC(=O)O)NC(=O)CNC(=O)[C@H](CCC(=O)O)NC(=O)[C@H](CCCCN)NC(=O)[C@H](CCCCN)NC(=O)[C@@H](N)CC(=O)O)C(=O)N[C@@H](CCCCN)C(=O)N[C@@H](CC(C)C)C(=O)N[C@@H](CCCCN)C(=O)N[C@H](C(=O)N[C@H](C(=O)NCC(=O)N[C@@H](CCC(N)=O)C(=O)N[C@@H](CC(=O)O)C(=O)N[C@@H](CO)C(=O)N[C@@H](CO)C(=O)N[C@@H](CCC(=O)O)C(=O)N[C@H](C(=O)N[C@@H](Cc1c[nH]cn1)C(=O)N[C@@H](Cc1ccccc1)C(=O)N[C@@H](CCCCN)C(=O)N[C@H](C(=O)N[C@@H](CCCCN)C(=O)N[C@@H](CCSC)C(=O)N[C@H](C(=O)N[C@H](C(=O)N[C@@H](Cc1c[nH]cn1)C(=O)N[C@@H](CCC(=O)O)C(=O)N[C@@H](CCCCN)C(=O)N[C@@H](CCCCN)C(=O)N[C@@H](CCCNC(=N)N)C(=O)N[C@@H](CCCCN)C(=O)N[C@@H](CCC(=O)O)C(=O)N[C@@H](CO)C(=O)N[C@@H](Cc1ccc(O)cc1)C(=O)N[C@@H](CS)C(=O)N[C@@H](CCC(N)=O)C(=O)N[C@@H](CCCNC(=N)N)C(=O)N[C@@H](CCC(N)=O)C(=O)O)[C@@H](C)O)[C@@H](C)O)C(C)C)[C@@H](C)CC)[C@@H](C)CC)C(C)C [SUMO1(15-55) (L44E, L47R)]
- binding ability to α-synuclein compared with that of SUMO1(15-55) (α-synuclein [1]): around 1/40
- inhibition of α-synuclein aggregation (α-synuclein [2]; [6]): much weaker inhibition effect

Compound: His-SUMO1(31-55): SUMO1(31-55) with an N-terminal 10×His tag ({10xHis tag}-SSEIHFKVKMTTHLKKLKESYCQRQ; UniProt P63165 31-55, looked up, fragment)
- inhibition of α-synuclein aggregation (α-synuclein [2]; ratio of 1:5 or 1:10 α-synuclein: SUMO peptide inhibitor): partial inhibition

Compound: RRRRRRRRSSEIHFKVKMTTHLKKLKESYCQRQ [R8-SUMO1(31-55)]
- internalization into cells (SH-SY5Y cells): internalization into SH-SY5Y cells at a high efficiency

Compound: SUMO1(20-40): SUMO1 derived peptide, residues 20-40 (EYIKLKVIGQDSSEIHFKVKM; UniProt P63165 20-40, looked up, fragment)
- inhibition of α-synuclein aggregation (α-synuclein [2]; [6]): not effective

Compound: SUMO1(31-55): residues 31-55 of human SUMO1, a beta sheet followed by an alpha-helix (SSEIHFKVKMTTHLKKLKESYCQRQ)
- locomotor dysfunction (climbing) [3]: improved the locomotor dysfunction
- locomotor dysfunction (climbing) [4]: improved the locomotor dysfunction
- locomotor dysfunction (climbing) [5]: improved the locomotor dysfunction

Compound: SUMO2(16-51): residues 16-51 of human SUMO2, identical sequence to SUMO3(15-50) (DHINLKVAGQDGSVVQFKIKRHTPLSKLMKAYCERQ; UniProt P61956 16-51, looked up, fragment)
- inhibition of α-synuclein aggregation (α-synuclein [2]; [6]): suppressed
- delay of the initiation of the aggregation (α-synuclein [2]; half molar ratio): 2 days
